Among the data in PubChem BioAssay AID743436 (The Scripps Research Institute Molecular Screening Center, 2014) are CC50 values, retold here.

Activity calls are given as the source filed them. How the calls were made is not given here.

For this experiment, the system named is S1PR3 cell line viability, luminescence counterscreen. The experiment can be described thus: cell viability loss, dose response – luminescence, cytotoxicity control for S1PR3 antagonist project, late-stage follow-up (AID 743436).
As a reminder, the CC50 is the concentration at which the toxic effect on the cells reaches its halfway point. In the case of `Clc1ccc(CNC(c2ccccc2)c2nc(-c3ccccc3)no2)cc1Cl` (stereo unspecified), the CC50 was > 28.2 µM (inactive).
With `O=C(NC(c1ccccc1)c1nc(-c2ccccc2)no1)c1cccc(Br)c1` (stereo unspecified) the figure was > 28.2 µM (inactive).
Turning to `O=C(NC(c1ccc(Cl)c(Cl)c1)c1nc(-c2ccccc2)no1)c1ccccc1` (stereo unspecified), the CC50 was 24.7 µM (inactive).
For `COc1ccc(C(=O)NC(c2ccccc2)c2nc(-c3ccccc3)no2)cc1` (stereo unspecified), the CC50 was > 28.2 µM (inactive).
With `O=C(NC(c1cccc(Cl)c1)c1nc(-c2ccccc2)no1)c1ccc(Cl)c(Cl)c1` (stereo unspecified) the figure was > 28.2 µM (inactive); with `O=C(Cc1ccc(Cl)c(Cl)c1)NC(c1ccccc1)c1nc(-c2ccccc2)no1` (stereo unspecified), > 28.2 µM (inactive); with `O=C(NC(Cc1ccccc1)c1nc(-c2ccccc2)no1)c1cccc(Cl)c1` (stereo unspecified), > 28.2 µM (inactive).
With `O=C(NC(c1ccccc1)c1nc(-c2ccccc2)no1)c1cccc(Cl)c1` (stereo unspecified) the figure was > 28.2 µM (inactive); with `O=C(NC(c1ccc(Br)cc1)c1nc(-c2ccccc2)no1)c1ccc(Cl)c(Cl)c1` (stereo unspecified), > 28.2 µM (inactive); with `O=C(NC(c1ccc(Cl)c(Cl)c1)c1nc(-c2ccccc2)no1)c1ccc(Cl)c(Cl)c1` (stereo unspecified), > 28.2 µM (inactive).
With `O=C(NC(c1cccc(Cl)c1)c1nc(-c2ccccc2)no1)c1cccc(Cl)c1` (stereo unspecified) the figure was > 28.2 µM (inactive); with `O=C(NC(c1nc(-c2ccccc2)no1)C1CCCCC1)c1ccc(Cl)c(Cl)c1` (stereo unspecified), > 28.2 µM (inactive).
For `O=C(NC(c1ccc(Cl)cc1)c1nc(-c2ccccc2)no1)c1ccc(Cl)c(Cl)c1` (stereo unspecified), the CC50 was > 28.2 µM (inactive).
The value for `O=C(NC(c1ccccc1)c1nc(-c2ccccc2)no1)c1ccc(Cl)cc1` (stereo unspecified) was > 28.2 µM (inactive).
With `N#Cc1ccc(C(=O)NC(c2ccc(Cl)c(Cl)c2)c2nc(-c3ccccc3)no2)cc1` (stereo unspecified) the figure was > 28.2 µM (inactive); with `Cc1ccc(C(=O)NC(c2ccccc2)c2nc(-c3ccccc3)no2)cc1` (stereo unspecified), > 28.2 µM (inactive); with `O=C(NC(c1ccc(Cl)cc1)c1nc(-c2ccccc2)no1)c1cccc(Cl)c1` (stereo unspecified), > 28.2 µM (inactive).
Consider `O=C(NC(c1ccccc1)c1nc(-c2ccccc2)no1)c1cccc(Cl)n1` (stereo unspecified), for which the CC50 is > 28.2 µM (inactive).
As to `O=C(NC(c1nc(-c2ccccc2)no1)C1CCOCC1)c1ccc(Cl)c(Cl)c1` (stereo unspecified), the CC50 was > 28.2 µM (inactive).
The value for `O=C(c1cccc(Cl)c1)N(CCO)C(c1ccc(Cl)c(Cl)c1)c1nc(-c2ccccc2)no1` (stereo unspecified) was > 28.2 µM (inactive); that for `O=C(NC(c1ccc(Cl)cc1)c1nc(-c2ccccc2)no1)c1ccc(Cl)c(Br)c1` (stereo unspecified) was > 28.2 µM (inactive); that for `O=C(NC(c1ccc(Cl)c(Cl)c1)c1nc(-c2ccccc2)no1)c1cccc(Cl)c1` (stereo unspecified) was > 28.2 µM (inactive).
Turning to `O=C(NC(c1ccccc1)c1nc(-c2ccccc2)no1)c1ccc(Cl)c(Cl)c1` (stereo unspecified), the CC50 is > 28.2 µM (inactive).
On to `O=C(NC(c1cccc(Cl)c1)c1nc(-c2ccccc2)no1)c1cc(Cl)cc(Cl)c1` (stereo unspecified), for which the CC50 was > 28.2 µM (inactive).
The value for `O=C(NC(c1ccc(Cl)cc1)c1nc(-c2ccccc2)no1)c1cccc(Br)c1` (stereo unspecified) was > 28.2 µM (inactive).
With `O=C(NC(c1ccc(Cl)cc1)c1nc(-c2ccccn2)no1)c1cccc(Cl)c1` (stereo unspecified) the figure was > 28.2 µM (inactive); with `O=C(NC(c1ccc(Cl)cc1)c1nc(-c2cccc(Cl)c2)no1)c1cccc(Cl)c1` (stereo unspecified), > 28.2 µM (inactive).
With `O=C(Nc1ccc(Cl)c(Cl)c1)NC(c1ccccc1)c1nc(-c2ccccc2)no1` (stereo unspecified) the figure was 7.7 µM; with `Cc1ccc(C(NC(=O)c2cccc(Cl)c2)c2nc(-c3ccccc3)no2)cc1` (stereo unspecified), > 28.2 µM (inactive).
Regarding `CCc1ccc(C(NC(=O)c2cccc(Cl)c2)c2nc(-c3ccccc3)no2)cc1` (stereo unspecified), the CC50 is > 28.2 µM (inactive).
For the compound `O=C(NC(c1ccc(Cl)c(Cl)c1)c1nc(-c2ccccc2)no1)c1ccc(Cl)cc1` (stereo unspecified), the CC50 was > 28.2 µM (inactive).
